From US6737383B1, “Herbicidal oxadiazolidines” (priority 1999, dated 2004)

Tests used:
[1] = system: giant foxtail; assay: Test B pre/postemergence giant foxtail; format: in vivo, Setaria faberii
How it was run: (§1)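 Herbicidal effect was estimated by eye on a ten-point control scale after plants spent twelve to sixteen days in a greenhouse following soil or foliar treatment. Foliar sprays targeted plants at one to four leaves; all doses were formulated in a non-phytotoxic solvent with surfactant.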

[2] = system: surinam grass; assay: Test B pre/postemergence surinam grass; format: in vivo, Brachiaria decumbens
How it was run: as §1

[3] = system: blackgrass; assay: Test B pre/postemergence blackgrass; format: in vivo, Alopecurus myosuroides
How it was run: as §1

[4] = system: purple nutsedge; assay: Test B pre/postemergence purple nutsedge; format: in vivo, Cyperus rotundus; conditions: for Plant response rating, Nutsedge: scale of 0 to 10 where 0 is no effect and 10 is complete control
How it was run: as §1

[5] = system: corn; assay: Test B pre/postemergence corn; format: in vivo, Zea mays
How it was run: as §1

[6] = system: rice; assay: Test B flood test rice; format: in vivo, Oryza sativa
How it was run: (§2)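 Read-out is a visual response score from 0 (no effect) to 10 (complete control), assigned by comparison with untreated controls. Treatment was applied at the 2-leaf stage, and plants stayed in the greenhouse for twelve to sixteen days before scoring.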

[7] = system: soybean; assay: Test B pre/postemergence soybean; format: in vivo, Glycine max; conditions: for Plant response rating, Soybean: scale of 0 to 10 where 0 is no effect and 10 is complete control
How it was run: as §1

[8] = system: wheat; assay: Test B pre/postemergence wheat; format: in vivo, Triticum aestivum; conditions: for Plant response rating, Wheat: scale of 0 to 10 where 0 is no effect and 10 is complete control
How it was run: as §1

[9] = system: cocklebur; assay: Test B pre/postemergence cocklebur; format: in vivo, Xanthium strumarium
How it was run: as §1

[10] = system: bedstraw; assay: Test B pre/postemergence bedstraw; format: in vivo, Galium aparine; conditions: for Bedstraw plant response rating: Postemergence; for Plant response rating, Bedstraw: Preemergence
How it was run: as §1

[11] = system: wild oat; assay: Test B pre/postemergence wild oat; format: in vivo, Avena fatua; conditions: for Plant response rating, Wild oats: scale of 0 to 10 where 0 is no effect and 10 is complete control
How it was run: as §1

[12] = system: duck salad; assay: Test B flood test duck salad; format: in vivo, Heteranthera limosa
How it was run: as §2

[13] = system: pigweed; assay: Test B pre/postemergence pigweed; format: in vivo, Amaranthus retroflexus; conditions: for Plant response rating, Redroot pigweed: scale of 0 to 10 where 0 is no effect and 10 is complete control
How it was run: as §1

[14] = system: velvetleaf; assay: Test B pre/postemergence velvetleaf; format: in vivo, Abutilon theophrasti; conditions: for Plant response rating, Velvetleaf: scale of 0 to 10 where 0 is no effect and 10 is complete control
How it was run: as §1

[15] = system: sugar beet; assay: Test B pre/postemergence sugar beet; format: in vivo, Beta vulgaris; conditions: for Plant response rating, Sugarbeets: scale of 0 to 10 where 0 is no effect and 10 is complete control
How it was run: as §1

[16] = system: crabgrass; assay: Test B pre/postemergence crabgrass; format: in vivo, Digitaria sanguinalis
How it was run: as §1

[17] = Postemergence, Rate 250 g/ha, scale 0 to 10
[18] = Postemergence, Rate 500 g/ha, scale of 0 to 10 where 0 is no effect and 10 is complete control
[19] = Preemergence, Rate 62 g/ha, scale of 0 to 10 where 0 is no effect and 10 is complete control
[20] = Preemergence, Rate 125 g/ha, scale of 0 to 10 where 0 is no effect and 10 is complete control
[21] = Preemergence, Rate 250 g/ha, scale 0 to 10, 0 is no effect, 10 is complete control
[22] = Preemergence, Rate 500 g/ha, scale 0 to 10, 0 is no effect, 10 is complete control
[23] = Rate 62 g/ha, Postemergence, scale 0 to 10, 0 no effect, 10 complete control
[24] = Rate 125 g/ha, Postemergence, scale 0 to 10, 0 is no effect, 10 is complete control
[25] = Rate 62 g/ha, flood test species, Pre-emergence, visual evaluation after twelve to sixteen days
[26] = Rate 125 g/ha, under heading Pre-emergence, flood test species, visual evaluation after twelve to sixteen days
[27] = Rate 250 g/ha, Pre-emergence (flood test species), scale 0 to 10, 0 is no effect, 10 is complete control
[28] = Rate 500 g/ha, Pre-emergence, flood test species, scale 0 to 10 (0 no effect, 10 complete control)

SMILES: CC[Si](C)(C)Cn1c(=O)on(C(=O)N(c2ccc(F)cc2)C(C)C)c1=O [Compound 459]
- Giant foxtail plant response rating [1, 17]: 2
- Giant foxtail plant response rating [1, 18]: 5
- Plant response rating, Giant foxtail [1, 19]: 8
- Plant response rating, Giant foxtail [1, 20]: 9
- Giant foxtail plant response rating [1, 21]: 10
- Giant foxtail plant response rating [1, 22]: 10
- Giant foxtail plant response rating [1, 23]: 0
- Giant foxtail plant response rating [1, 24]: 0
- B. signalgrass plant response rating ([2]; Postemergence, Rate 250 g/ha, scale 0 to 10, 0 no effect, 10 complete control): 0
- B. signalgrass plant response rating [2, 18]: 0
- Plant response rating, B. signalgrass [2, 19]: 0
- Plant response rating, B. signalgrass [2, 20]: 0
- B. signalgrass plant response rating [2, 21]: 1
- B. signalgrass plant response rating [2, 22]: 1
- B. signalgrass plant response rating [2, 23]: 0
- B. signalgrass plant response rating [2, 24]: 0
- Blackgrass plant response rating [3, 17]: 8
- Blackgrass plant response rating [3, 18]: 8
- Plant response rating, Blackgrass [3, 19]: 0
- Plant response rating, Blackgrass [3, 20]: 0
- Blackgrass plant response rating [3, 21]: 5
- Blackgrass plant response rating [3, 22]: 6
- Blackgrass plant response rating [3, 23]: 0
- Blackgrass plant response rating [3, 24]: 1
- Nutsedge plant response rating [4, 17]: 0
- Plant response rating, Nutsedge ([4]; Preemergence, Rate 62 g/ha): 0
- Plant response rating, Nutsedge ([4]; Preemergence, Rate 125 g/ha): 0
- Nutsedge plant response rating [4, 21]: 0
- Nutsedge plant response rating [4, 22]: 0
- Nutsedge plant response rating [4, 23]: 0
- Nutsedge plant response rating [4, 24]: 0
- Corn plant response rating [5, 17]: 0
- Corn plant response rating [5, 18]: 0
- Plant response rating, Corn [5, 19]: 0
- Plant response rating, Corn [5, 20]: 0
- Corn plant response rating [5, 21]: 0
- Corn plant response rating [5, 22]: 0
- Corn plant response rating [5, 23]: 0
- Corn plant response rating [5, 24]: 0
- Plant response rating, Rice (0 to 10 scale, 0 is no effect, 10 is complete control) [6, 25]: 0
- Rice plant response rating (0 to 10 scale, 0 is no effect, 10 is complete control) [6, 26]: 0
- Rice plant response rating [6, 27]: 0
- Rice plant response rating [6, 28]: 0
- Soybean plant response rating [7, 17]: 6
- Plant response rating, Soybean ([7]; Preemergence, Rate 62 g/ha): 0
- Plant response rating, Soybean ([7]; Preemergence, Rate 125 g/ha): 0
- Soybean plant response rating [7, 21]: 0
- Soybean plant response rating [7, 22]: 0
- Soybean plant response rating [7, 23]: 3
- Soybean plant response rating [7, 24]: 3
- Wheat plant response rating [8, 17]: 0
- Plant response rating, Wheat ([8]; Preemergence, Rate 62 g/ha): 0
- Plant response rating, Wheat ([8]; Preemergence, Rate 125 g/ha): 0
- Wheat plant response rating [8, 21]: 0
- Wheat plant response rating [8, 22]: 0
- Wheat plant response rating [8, 23]: 0
- Wheat plant response rating [8, 24]: 0
- Cocklebur plant response rating [9, 17]: 0
- Cocklebur plant response rating [9, 18]: 0
- Plant response rating, Cocklebur [9, 19]: 0
- Plant response rating, Cocklebur [9, 20]: 0
- Cocklebur plant response rating [9, 21]: 0
- Cocklebur plant response rating [9, 22]: 0
- Cocklebur plant response rating [9, 23]: 0
- Cocklebur plant response rating [9, 24]: 0
- Bedstraw plant response rating ([10]; Rate 250 g/ha, scale 0 to 10): 6
- Bedstraw plant response rating ([10]; Rate 500 g/ha, scale of 0 to 10 where 0 is no effect and 10 is complete control): 8
- Plant response rating, Bedstraw ([10]; Rate 62 g/ha, scale of 0 to 10 where 0 is no effect and 10 is complete control): 0
- Plant response rating, Bedstraw ([10]; Rate 125 g/ha, scale of 0 to 10 where 0 is no effect and 10 is complete control): 0
- Wild oats plant response rating [11, 17]: 0
- Plant response rating, Wild oats ([11]; Preemergence, Rate 62 g/ha): 0
- Plant response rating, Wild oats ([11]; Preemergence, Rate 125 g/ha): 0
- Wild oats plant response rating [11, 21]: 0
- Wild oats plant response rating [11, 22]: 0
- Wild oats plant response rating [11, 23]: 0
- Wild oats plant response rating [11, 24]: 0
- Plant response rating, Ducksalad (0 to 10 scale, 0 is no effect, 10 is complete control) [12, 25]: 0
- Ducksalad plant response rating (0 to 10 scale, 0 is no effect, 10 is complete control) [12, 26]: 0
- Ducksalad plant response rating [12, 27]: 0
- Ducksalad plant response rating [12, 28]: 0
- Redroot pigweed plant response rating [13, 17]: 0
- Plant response rating, Redroot pigweed ([13]; Preemergence, Rate 62 g/ha): 0
- Plant response rating, Redroot pigweed ([13]; Preemergence, Rate 125 g/ha): 0
- Redroot pigweed plant response rating [13, 21]: 4
- Redroot pigweed plant response rating [13, 22]: 7
- Redroot pigweed plant response rating [13, 23]: 0
- Redroot pigweed plant response rating [13, 24]: 0
- Velvetleaf plant response rating [14, 17]: 0
- Plant response rating, Velvetleaf ([14]; Preemergence, Rate 62 g/ha): 0
- Plant response rating, Velvetleaf ([14]; Preemergence, Rate 125 g/ha): 0
- Velvetleaf plant response rating [14, 21]: 0
- Velvetleaf plant response rating [14, 22]: 0
- Velvetleaf plant response rating [14, 23]: 0
- Velvetleaf plant response rating [14, 24]: 0
- Sugarbeets plant response rating [15, 17]: 0
- Plant response rating, Sugarbeets ([15]; Preemergence, Rate 62 g/ha): 0
- Plant response rating, Sugarbeets ([15]; Preemergence, Rate 125 g/ha): 0
- Sugarbeets plant response rating [15, 21]: 0
- Sugarbeets plant response rating [15, 22]: 0
- Sugarbeets plant response rating [15, 23]: 0
- Sugarbeets plant response rating [15, 24]: 0
- Crabgrass plant response rating [16, 17]: 5
- Crabgrass plant response rating [16, 18]: 8
- Plant response rating, Crabgrass [16, 19]: 5
- Plant response rating, Crabgrass [16, 20]: 7
- Crabgrass plant response rating [16, 21]: 9
- Crabgrass plant response rating [16, 22]: 10
- Crabgrass plant response rating [16, 23]: 0
- Crabgrass plant response rating [16, 24]: 1
